From patent US20210161915A1, “GABA-A ANTAGONISTS FOR TREATING SUBSTANCE […]” (ASARINA PHARMA APS, priority 2018, published 2021)
Entries after “also recorded” stand apart in the source; their conditions may differ. Like-named read-outs stand apart in the source and are kept apart here.

How the values were obtained:
female Wistar rats = experiment: Allopregnanolone-induced loss of righting reflex (LoR) test; assay type: in vivo, rat; conditions: for Animals (%) not showing LoR after allopregnanolone injection: allopregnanolone 2 mg/kg i.v.
Experimental: The compound by 3beta-fluor-5alpha-pregnan-20-one (UC2016) was analyzed for antagonism of the allopregnanolone-induced loss of righting reflex (LoR) in female Wistar rats.
Study design: Allopregnanolone was dissolved 2 mg/ml in 10% 2-hydroxy-beta-cyclodextrin (beta-CD), with the use of ultra sound. 3beta-fluor-5alpha-pregnan-20-one (UC2016) dissolved in MCT (10 mg/ml) was injected s.c. 30 and 60 minutes before i.v. 2 mg/kg allopregnanolone. UC2016, in different concentrations (1-20 mg/kg) were given s.c. 30 or 60 minutes before the acute i.v. allopregnanolone-induced LoR. To study if MCT oil alone interferes with the acute i.v. allopregnanolone-induced LoR, MCT oil was given s.c. 30 or 60 min before the allopregnanolone injection. Doses given were from 1 mg/kg to 20 mg/kg UC2016 s.c.
Animals: Female Wistar rats (n=12) from Taconics, Denmark were used. At arrival rats weighted 250 g. For identification the rats were marked with numbers on their tail with a permanent marker. The animals were housed four in each cage for 6 weeks and thereafter two in each cage at the Umea Centre for Comparative Biology (UCCB) animal facility at Umea University, where also all experiments took place. Housing room temperature was kept at 22-23° C. Lights on and off were monitored 12/12 h light/dark; lights on at 06.00 and off at 18.00. Food and water was available ad libitum. The study protocol was approved by the Regional Ethics Committee of Umeå, Sweden.
Handling: To avoid stress during the experimental session, animals were daily handled the week before testing. Handling included moments used during the test, i.e. holding, tail warming in water, and wrapping in op-blanket.
Solutions: Allopregnanolone (Umecrine AB, batch L00019654), was dissolved in 10% or 30% 2-hydroxypropyl-β-cyclodextrin (HPβ-CD; Sigma, H-107) with the use of ultra sound. MCT oil and Solution of UC2016; 10 mg/ml in MCT oil, were provided by XSpray Microparticles AB (Stockholm).
Allopregnanolone-induced loss of righting reflex (LoR) test: During testing, the rat was weighted, the tail was warmed in water (43° C.) for three minutes, and the rat was wrapped in an op-blanket and hold for injection. The test solution was injected i.v. in one of the tail veins during 30 s (optimal injection rate for allopregnanolone, 4 mg/kg/min, Zhu et al 2001), and the needle then kept in place for additional 30 s. The time point for the end of the actual injection was noted. The rat was then placed in a separate cage and LoR was tested by laying the rat on the right side. Rats with LoR stayed on side, and the time until righting was followed. Rats with no LoR could not be placed on side, as the righting reflex immediate corrected the orientation of the body so that the rat was standing on its paws. The effects of the different injections were followed by the two evaluators for approximately 10 min, and the rat was then taken back to its home cage. LoR is an early event at anesthesia, and this fact is used in the test. Allopregnanolone is a strong anesthetic substance, an agonist at the GABAA receptor, and LoR is in the test induced during the 30 seconds with the injection of the substance. At tests of possible allopregnanolone antagonists, the antagonistic effect is thus observed immediately after the injection, i.e. when the rat is placed in the test cage.

[1] = target: T1, human alpha1,beta2,gamma2 Long GABAA receptor subtype (Homo sapiens, UniProt P14867+P47870); experiment: Patch-clamp (Dynaflow system) current response in HEK-293 cells transfected with alpha1,beta2,gamma2 Long GABAA receptor; assay type: cell-based
T1 construct: expressed in transfected cells; host or cells: HEK-293
T1 sequence (P14867 28-456): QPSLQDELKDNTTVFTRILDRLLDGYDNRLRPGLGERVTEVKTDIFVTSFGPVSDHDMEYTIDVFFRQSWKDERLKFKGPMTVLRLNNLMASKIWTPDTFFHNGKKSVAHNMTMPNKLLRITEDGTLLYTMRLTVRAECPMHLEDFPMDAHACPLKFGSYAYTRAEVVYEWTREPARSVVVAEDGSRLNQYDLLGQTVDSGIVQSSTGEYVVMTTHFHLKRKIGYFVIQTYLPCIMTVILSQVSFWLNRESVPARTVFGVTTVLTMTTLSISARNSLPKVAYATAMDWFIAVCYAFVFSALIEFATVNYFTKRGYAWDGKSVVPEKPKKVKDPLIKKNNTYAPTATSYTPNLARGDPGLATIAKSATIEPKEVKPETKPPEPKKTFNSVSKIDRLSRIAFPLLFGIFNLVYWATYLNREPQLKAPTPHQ
T1 sequence (P47870 25-512 limits assumed): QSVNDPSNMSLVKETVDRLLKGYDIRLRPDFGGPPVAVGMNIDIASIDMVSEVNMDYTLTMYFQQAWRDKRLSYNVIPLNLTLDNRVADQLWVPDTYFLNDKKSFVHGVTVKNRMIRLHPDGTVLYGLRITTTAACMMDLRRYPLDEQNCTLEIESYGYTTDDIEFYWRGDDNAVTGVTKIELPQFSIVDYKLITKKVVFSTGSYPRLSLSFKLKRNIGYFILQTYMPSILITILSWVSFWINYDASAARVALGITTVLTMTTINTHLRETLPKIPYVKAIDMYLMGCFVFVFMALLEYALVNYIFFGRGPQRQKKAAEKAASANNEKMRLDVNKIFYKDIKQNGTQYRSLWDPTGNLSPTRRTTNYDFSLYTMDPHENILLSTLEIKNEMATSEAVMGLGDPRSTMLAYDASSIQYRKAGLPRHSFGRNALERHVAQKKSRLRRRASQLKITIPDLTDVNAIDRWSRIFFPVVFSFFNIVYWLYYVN
T1 sequence (P18507 40-475 partner): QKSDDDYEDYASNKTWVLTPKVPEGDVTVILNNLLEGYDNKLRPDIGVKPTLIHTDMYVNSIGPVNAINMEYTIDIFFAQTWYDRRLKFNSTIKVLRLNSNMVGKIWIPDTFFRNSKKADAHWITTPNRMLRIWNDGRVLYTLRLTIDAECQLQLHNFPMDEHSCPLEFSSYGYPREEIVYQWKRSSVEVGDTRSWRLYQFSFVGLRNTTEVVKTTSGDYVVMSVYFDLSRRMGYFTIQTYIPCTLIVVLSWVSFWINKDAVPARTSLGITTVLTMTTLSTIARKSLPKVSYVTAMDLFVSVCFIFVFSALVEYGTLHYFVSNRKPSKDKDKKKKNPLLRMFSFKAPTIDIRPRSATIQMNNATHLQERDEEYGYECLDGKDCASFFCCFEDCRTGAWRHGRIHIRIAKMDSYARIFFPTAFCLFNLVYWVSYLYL
Experimental: (§1) In these tests the protocol was optimized to be similar to the physiological conditions in the synaptic cleft.
(§2) Cell culture: HEK-293 cells, permanently transfected with the human alpha1,beta,gamma and alpha4,beta,delta GABAA receptor subtypes, were seeded at a density of 3×10^4/25 cm^2 in a culture flask. The transfected cells were used for patch-clamp experiments 3 days after seeding. When using the cells for patch-clamp experiments the cells were washed twice with oxygen-bubbled extra cellular (EC) solution (see below). About 5 mL EC was then added and the cells were kept in the incubator for about 15 minutes. After 15 minutes the cells came loose from the bottom of the flask and were separated by carefully sucking a couple of times with a Pasteur pipette.
(§3) Dynaflow™ system with Resolve chip was used for patch-clamp experiments: The electrophysiological recordings from HEK-293 cells were performed under voltage-clamp conditions using patch-clamp technique and the Dynaflow™ system (Dynaflow Pro II Platform Zeiss Axiovert 25; Cellectricon AB, Sweden) with Resolve chips as application system.
(§4) Patch pipettes were pulled from borosilicate glass and polished to a resistance 2-5 MΩ when filled with suitable intracellular solution (IC) (pH was adjusted to 7.2) and immersed in bath solution (extracellular, EC) (pH is adjusted to 7.4).
(§5) The recordings were made using an Axopatch 200B amplifier, a Digidata 1322A (Axon instruments, Foster city, USA). Data were analysed using the pCLAMP software sampled at 10 kHz, filtered at 2-10 kHz and analyzed with Clampfit (versions 9.0, both from Axon instruments, Foster city, USA). No higher series resistance than 20 MΩ between pipette and cell membrane was accepted. No series resistance compensation was used. The stability of series resistance was monitored repeatedly from the time course of capacitative transients during the experiments. The measured liquid-junction potential between EC and IC was subtracted in all data presented. All experiments were performed at room temperature (21-23° C.).
(§6) All steroids were dissolved to the concentration of 6 mM in DMSO. […] End solutions were the solutions added into the wells of the chip.
(§7) Electrophysiology: After compensating for the liquid junction potential a steady holding potential of −17 mV was used in all experiments. […] By using the holding potential of −17 mV and the intracellular solution with low chloride ion concentration the chloride ions flux into the cell when the receptors were activated.
The Dynaflow system allowed application of solutions for as short as 40 ms up to minutes in time.
In the experiments, THDOC and 3alpha-OH-adiol were used as the positive GABAA receptor modulating steroids.
(§8) Different incubation times were studied to achieve the optimal time for attaining stable results and minimize the washout time.
Study design: Studies were conducted on current response mediated by chloride ion flux through the GABAA receptor. […] The same patch-clamp technique was used as described above (Example 1) using the Dynaflow™ application system. THDOC was used as positive GABAA receptor modulating steroid as it has shorter washout time compared to allopregnanolone but works with the same mechanisms on the same GABAA receptor binding site as allopregnanolone.
HEK-293 cells, permanently transfected with cDNA expressing the human alpha1,beta2,gamma2 Long GABAA receptor subtype. The tissue culture and the handling of the cells were as described in Example 1. In the patch-clamp experiments the transfected cells were used minimum two passages after defrosting and 3 days after seeding. The cells were seeded for maximal 25 times.

[2] = target: T2, human alpha4,beta,delta GABAA receptor subtype (Homo sapiens, UniProt P28472+P48169); experiment: Patch-clamp (Dynaflow system) current response in HEK-293 cells transfected with alpha4,beta3,delta GABAA receptor; assay type: cell-based
T2 construct: expressed in transfected cells; host or cells: HEK-293
T2 sequence (P48169 36-554): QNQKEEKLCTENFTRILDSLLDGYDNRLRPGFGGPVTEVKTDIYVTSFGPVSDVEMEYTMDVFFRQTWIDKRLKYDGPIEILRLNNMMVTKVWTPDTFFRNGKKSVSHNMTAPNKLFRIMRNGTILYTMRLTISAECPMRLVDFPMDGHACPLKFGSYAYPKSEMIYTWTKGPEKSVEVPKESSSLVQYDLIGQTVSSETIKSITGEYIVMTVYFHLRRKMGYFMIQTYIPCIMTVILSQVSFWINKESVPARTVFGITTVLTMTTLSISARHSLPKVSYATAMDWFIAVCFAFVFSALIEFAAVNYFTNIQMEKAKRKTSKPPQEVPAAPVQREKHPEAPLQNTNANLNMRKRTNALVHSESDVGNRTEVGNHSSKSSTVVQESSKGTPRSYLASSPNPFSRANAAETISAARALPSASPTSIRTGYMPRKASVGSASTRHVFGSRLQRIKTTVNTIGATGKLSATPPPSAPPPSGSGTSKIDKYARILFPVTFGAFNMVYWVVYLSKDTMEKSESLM
T2 sequence (P28472 26-473): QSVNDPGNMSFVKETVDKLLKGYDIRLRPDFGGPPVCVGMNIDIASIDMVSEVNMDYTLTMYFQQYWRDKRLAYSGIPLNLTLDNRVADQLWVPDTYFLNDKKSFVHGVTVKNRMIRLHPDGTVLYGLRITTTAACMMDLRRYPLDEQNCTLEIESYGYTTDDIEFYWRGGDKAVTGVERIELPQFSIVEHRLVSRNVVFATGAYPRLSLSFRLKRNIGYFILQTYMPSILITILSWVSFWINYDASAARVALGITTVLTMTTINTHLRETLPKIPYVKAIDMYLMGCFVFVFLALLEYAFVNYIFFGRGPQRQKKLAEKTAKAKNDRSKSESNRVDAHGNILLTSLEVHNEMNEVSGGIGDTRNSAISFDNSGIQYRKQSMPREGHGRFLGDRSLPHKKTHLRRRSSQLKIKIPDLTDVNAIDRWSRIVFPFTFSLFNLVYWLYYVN
T2 sequence (O14764 17-452 partner limits assumed): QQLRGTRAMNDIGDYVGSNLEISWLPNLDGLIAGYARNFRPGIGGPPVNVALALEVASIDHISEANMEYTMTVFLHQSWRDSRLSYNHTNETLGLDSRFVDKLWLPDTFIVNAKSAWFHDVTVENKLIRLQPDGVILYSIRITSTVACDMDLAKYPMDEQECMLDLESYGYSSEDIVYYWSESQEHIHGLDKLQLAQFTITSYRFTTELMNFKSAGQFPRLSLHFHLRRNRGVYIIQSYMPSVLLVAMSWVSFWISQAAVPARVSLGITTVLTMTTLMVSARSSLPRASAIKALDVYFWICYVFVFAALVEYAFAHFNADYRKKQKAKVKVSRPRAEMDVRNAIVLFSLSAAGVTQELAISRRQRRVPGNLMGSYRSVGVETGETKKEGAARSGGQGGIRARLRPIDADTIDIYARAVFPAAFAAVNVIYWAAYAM
Experimental: as §1, §2, §3, §4, §5, §6, §7
The Dynaflow system allowed application of solutions for as short as 40 ms up to minutes in time. […] There was no difference in response between the second and the third GABA application. Therefore, the first GABA application was always repeated twice and the second response was used in the analysis.
Washout: GABA is quite soluble in water and easy to washout from the receptor. […] Steroids on the other hand were difficult to dissolve in water and also difficult to washout from the receptor. In the experiments, THDOC and 3alpha-OH-adiol were used as the positive GABAA receptor modulating steroids. With 2 minutes washout time, 200 nM THDOC and 3alpha-OH-adiol was completely washed out as shown by neither an accumulative nor a desensitization effect.
as §8

**Q.** With `CC(=O)[C@H]1CC[C@H]2[C@@H]3CC[C@H]4C[C@@H](F)CC[C@]4(C)[C@H]3CC[C@]12C` [UC2016, 3beta-fluor-5alpha-pregnan-20-one] as the molecule, how does the “Antagonism of allopregnanolone induction of LoR” value (female Wistar rats; 1 mg/kg s.c., 60 min before allopregnanolone) read?
**A.** The value was “clearly antagonized”.

**Q.** What about the “Inhibition of LoR induction by allopregnanolone” value (from here on “Inhibition of LoR induction”) (female Wistar rats; 5 mg/kg s.c., 30 minutes before allopregnanolone) of the same molecule?
**A.** The value was “not”.

**Q.** What about the “Inhibition of LoR induction” value (female Wistar rats; 5 mg/kg s.c., 60 minutes before allopregnanolone) of the same molecule?
**A.** Its value is “had an inhibitory effect”.

**Q.** And the “Inhibition of LoR induction” value (female Wistar rats; 10 mg/kg or higher s.c., 30 min before allopregnanolone)?
**A.** The value was “inhibited LoR induction”.

**Q.** What about the “Animals (%) not showing LoR after allopregnanolone injection” value (“Animals (%) not showing LoR” below) (female Wistar rats; UC2016 1 mg/kg s.c. in MCT oil) of the same molecule?
**A.** Its value is 100%.

**Q.** What about the “Animals (%) not showing LoR” value (female Wistar rats; UC2016 2 mg/kg s.c. in MCT oil) of the same molecule?
**A.** The value was 80%.

**Q.** What about the “Animals (%) not showing LoR” value (female Wistar rats; UC2016 10 mg/kg s.c. in MCT oil) of the same molecule?
**A.** The value was 100%.

**Q.** What about the “Animals (%) not showing LoR” value (female Wistar rats; UC2016 20 mg/kg s.c. in MCT oil) of the same molecule?
**A.** Its value is 100%.

**Q.** And the “[UC2016] + 30 μM GABA + 200 nM THDOC, Mean ± SEM (%)” value ([1]; 0.1 μM UC2016)?
**A.** The value was −4.7 ± 3.5%.

**Q.** And the “[UC2016] + 30 μM GABA + 200 nM THDOC, Mean ± SEM (%)” value ([1]; 0.3 μM UC2016)?
**A.** The value was −11.6 ± 5.5%.

**Q.** What about the “[UC2016] + 30 μM GABA + 200 nM THDOC, Mean ± SEM (%)” value ([1]; 1 μM UC2016) of the same molecule?
**A.** Its value is −25.1 ± 3.5%.

**Q.** And the “Imax/Emax, effect on GABA response” value ([1]; 1 μM UC2016 + 30 μM GABA)?
**A.** Its value is −8.6 ± 1.7%.

**Q.** What about the “Effect of compound alone (baseline shift)” value ([1]; 1 μM UC2016, absence of GABA) of the same molecule?
**A.** Its value is “no effect on baseline shift; also recorded: UC2016 had no effect in absence of GABA”.

**Q.** Which results are given for `C[C@]12CC[C@@H](O)C[C@@H]1CC[C@@H]1[C@@H]2CC[C@]2(C)C(O)CC[C@@H]12` (stereo partly drawn) [Androstanediol, 3alpha-hydroxy-5alpha-androstan-17-ol, reference compound]?
**A.** EC50 [1]: 3.4 µM; Androstanediol effect without GABA ([1]; data not shown): no effect without GABA; EC50 [2]: 380 nM; Baseline shift, current response in absence of GABA, Mean ± SEM pA ([2]; 3 μM Androstanediol): +8 ± 3.6 pA; Baseline shift, current response in absence of GABA, Mean ± SEM pA ([2]; 10 μM Androstanediol): +13 ± 4.8 pA

**Q.** Which “Induction of LoR” value (female Wistar rats; allopregnanolone 2 mg/kg i.v. alone) does the source give for `CC(=O)[C@H]1CC[C@H]2[C@@H]3CC[C@H]4C[C@H](O)CC[C@]4(C)[C@H]3CC[C@]12C` [Allopregnanolone, allopregnanolone, reference compound] here?
**A.** The value was “induces LoR in all female Wistar rats”.

**Q.** How did the Imax/Emax ([1]; 0.03-1 μM THDOC + 30 μM GABA) turn out when `C[C@]12CC[C@@H](O)C[C@H]1CC[C@@H]1[C@@H]2CC[C@]2(C)[C@@H](C(=O)CO)CC[C@@H]12` [THDOC, Tetrahydrodeoxycorticosterone, reference compound] was run?
**A.** Its Imax/Emax is “+115%”.

**Q.** What about the “THDOC induced tonic effect (baseline shift)” value ([1]; without GABA) of the same molecule?
**A.** The value was “did not induce any baseline shift”.

**Q.** And the “Emax, enhancement of GABA mediated current response” value [2]?
**A.** The value was 297%.

**Q.** What about the EC50 ([2]; read-out: EC50, enhancement of GABA mediated current response) of the same molecule?
**A.** Its EC50 is 47 nM.

**Q.** What about the “THDOC induced baseline shift” value ([2]; without GABA, data not shown) of the same molecule?
**A.** The value was “induces a baseline shift”.
